The target of this test is c-Myc template DNA (c-myc quadruplex). The experiment in a line: Quadruplex binding / stop assay (Taq polymerase arrest, capillary electrophoresis).
[1] abbreviates: read-out: S DATA, Table 1D, stop assay data.
Setting [2] is: read-out: Stop Data c-Myc μM, concentration at which 50% of the DNA was arrested (arrested:full-length 1:1).

Like-named read-outs stand apart in the source and are kept apart here.

Turning to `CN1CCCC1CCNC(=O)c1cn2c3c(c(-n4cncc4-c4cnccn4)c(F)cc3c1=O)Oc1cc3ccccc3cc1-2` (stereo not drawn) [compound 1761], the IC50 under setting [1] worked out at 1.75 µM. Still for that read-out and setting: then `C[C@@H](O)CNC(=O)c1cn2c3c(c(N4CCC(N)C4)c(F)cc3c1=O)Oc1cc3ccccc3cc1-2` (stereo partly drawn) [compound 1708], with more than 15 µM; and `O=C(NCCN1CCOCC1)c1cn2c3c(c(NCCCN4CCOCC4)ccc3c1=O)Oc1cc3ccccc3cc1-2` [compound 1533], with more than 15 µM. For the compound `CN1CCCC1CCNC(=O)c1cn2c3c(c(NC(=O)C4CCCNC4)c(F)cc3c1=O)Oc1cc3ccccc3cc1-2` (stereo not drawn) [compound 251], the IC50 under setting [2] turned out to be 1.75 µM. Still for that read-out and setting: in the case of `CN1CCN(C(=O)c2cn3c4c(c(N5CC[C@@H](N)C5)c(F)cc4c2=O)Oc2c-3ccc3ccccc23)CC1` [compound 81] it was 2.5 µM.

As for `CN1CCCC1CCNC(=O)c1cn2c3c(c(NCCCN)c(F)cc3c1=O)Oc1cc(Cl)ccc1-2` (stereo not drawn) [compound 1809], the IC50 under setting [1] is more than 15 µM.

Take `CN1CCCC1CCNC(=O)c1cn2c3c(c(NCCN4CCCC4)c(F)cc3c1=O)Oc1c-2ccc2ccccc12` (stereo not drawn) [compound 138]: the IC50 under setting [2] turned out to be 1.75 µM. As to `CN(C)CCCCNC(=O)c1cn2c3c(c(NCCCCN(C)C)c(F)cc3c1=O)Oc1c-2ccc2ccccc12` [compound 470], the IC50 under setting [2] came out at 0.64 µM.

`CC1CCCC(C)N1CCCNC(=O)c1cn2c3c(c(N4CCC(N)C4)c(F)cc3c1=O)Oc1cc3ccccc3cc1-2` (stereo not drawn) [compound 465]: under setting [2], the IC50 was 0.75 µM.

`CN1CCN(CCCNc2c(F)cc3c(=O)c(C(=O)N4CCC(N5CCCC5)CC4)cn4c3c2Oc2ccccc2-4)CC1` [compound 1581]: under setting [1], the IC50 was more than 15 µM. As for `CN1CCCC1CCNCC(=O)N[C@@H]1CCN(c2c(F)cc3c(=O)c(C(=O)NCCN4CCCCC4)cn4c3c2Oc2cc3c(cc2-4)oc2ccccc23)C1` (stereo partly drawn) [compound 409], the IC50 under setting [2] is 0.75 µM. Consider `Nc1c(F)c(N2CCC(N)C2)c2c3c1c(=O)c(C(=O)NCCN1CCCC1)cn3-c1cc3ccccc3cc1O2` (stereo not drawn) [compound 233], for which the IC50 under setting [2] stood at 1.75 µM. Same read-out and setting: in the case of `CC(=O)N1CCN(C(=O)c2cn3c4c(c(N5CCC(N)C5)c(F)cc4c2=O)Oc2cc4ccccc4cc2-3)CC1` (stereo not drawn) [compound 201] it was 1.75 µM.

Turning to `CN1CCCC1CCNC(=O)c1cn2c3c(c(N4CCC(NC(=O)OC(C)(C)C)C4)ccc3c1=O)Oc1cc3ccccc3cc1-2` (stereo not drawn) [compound 1535], the IC50 under setting [1] stood at 0.75 µM. With `NC1CCN(c2c(F)cc3c(=O)c(C(=O)NCCCn4ccnc4)cn4c3c2Oc2cc3ccccc3cc2-4)C1` (stereo not drawn) [compound 200], under setting [2], the IC50 worked out at 1.75 µM. On the same count and under the same terms, then `CN1CCN(CCCNc2c(F)cc3c(=O)c(C(=O)NCCN4CCCC4)cn4c3c2Oc2cc3c(cc2-4)oc2ccccc23)CC1` [compound 152], with 1.75 µM.

`CN1CCCC1CCNc1ccc2c(=O)c(C(=O)NC3CC(C)(C)NC(C)(C)C3)cn3c2c1Oc1cc2ccccc2cc1-3` (stereo not drawn) [compound 1525]: under setting [1], the IC50 came to 1.75 µM. On to `O=C(NCCN1CCCC1)c1cn2c3c(c(N4CCN(Cc5ccoc5)CC4)c(F)cc3c1=O)Oc1cc(Cl)ccc1-2` [compound 1832], for which, under setting [1], the IC50 amounted to 10 µM.

Consider `CN1CCCC1CCNC(=O)c1cn2c3c(c(NCCCn4ccnc4)c(F)cc3c1=O)Oc1cc3ccccc3cc1-2` (stereo not drawn) [compound 1670], for which the IC50 under setting [1] turned out to be 1 µM. Regarding `CN(C)CCCCNC(=O)c1cn2c3c(c(N4CCC(NC(=O)OC(C)(C)C)C4)c(F)c(N)c3c1=O)Oc1cc3ccccc3cc1-2` (stereo not drawn) [compound 228], under setting [2], the IC50 was found to be 1.75 µM. The same measure, in the same setting: then `CN1CCCC1CCNC(=O)c1cn2c3c(c(N)c(F)c(NCCCN4CCOCC4)c3c1=O)Oc1cc3ccccc3cc1-2` (stereo not drawn) [compound 191], with 1.75 µM.

Regarding `CC(C)CC(CO)Nc1c(F)cc2c(=O)c(C(=O)NCCC3CCCN3C)cn3c2c1Oc1cc2ccccc2cc1-3` (stereo not drawn) [compound 1743], the IC50 under setting [1] was more than 15 µM. For `CN1CCCC1CCNC(=O)c1cn2c3c(c(NCCN4CCCC4)c(F)cc3c1=O)Oc1cc3ccccc3cc1-2` (stereo not drawn) [compound 73], under setting [2], the IC50 was found to be 2.5 µM. `COc1cccc(CCNc2c(F)cc3c(=O)c(C(=O)NCCC4CCCN4C)cn4c3c2Oc2cc3ccccc3cc2-4)c1OC` (stereo not drawn) [compound 1673]: the IC50 under setting [1] amounted to 2.5 µM.

These data come from patent US7507727B2, “Substituted quinobenzoxazine analogs and methods of using thereof” (Cylene Pharmaceuticals, Inc., priority 2003, dated 2009).
